For the test, the species on record is Cavia porcellus. The test can be described thus: Tested for potent reversible agonist activity on electrically stimulated guinea pig ileal longitudinal muscle preparation. It counts as functional, organism-based. The following applies: Muscle tissue.

Molecules are shown by their SMILES.

From ChEMBL document CHEMBL1121607, “A novel opioid receptor site directed alkylating agent with irreversible narcotic antagonistic and reversible agonistic activities” (J Med Chem, 1980) come the findings set out here.

Compound `COC(=O)/C=C/C(=O)N[C@@H]1CC[C@@]2(O)[C@H]3Cc4ccc(O)c5c4[C@@]2(CCN3CC2CC2)[C@H]1O5` registered an IC50 of 4.8 nM.

As to `COC(=O)/C=C/C(=O)N[C@@H]1CC[C@@]2(O)C3Cc4ccc(O)c5c4C2(CCN3C)[C@H]1O5` (stereo partly drawn), the IC50 turned out to be 27 nM. For the compound `O=C1CC[C@@]2(O)[C@H]3Cc4ccc(O)c5c4[C@@]2(CCN3CC2CC2)[C@H]1O5` [NALTREXONE], the half-maximal inhibitory concentration (IC50) came out at 50 nM.
